Assay results reported in US9365522B2, “Pyrazole amide derivative” (AMGEN INC., priority 2015, dated 2016).

Target: T1, human RORγ-LBD (Homo sapiens, UniProt P51449)
T1 construct: made in house; host or cells: E. coli (BL-21)
T1 sequence (P51449 262-518): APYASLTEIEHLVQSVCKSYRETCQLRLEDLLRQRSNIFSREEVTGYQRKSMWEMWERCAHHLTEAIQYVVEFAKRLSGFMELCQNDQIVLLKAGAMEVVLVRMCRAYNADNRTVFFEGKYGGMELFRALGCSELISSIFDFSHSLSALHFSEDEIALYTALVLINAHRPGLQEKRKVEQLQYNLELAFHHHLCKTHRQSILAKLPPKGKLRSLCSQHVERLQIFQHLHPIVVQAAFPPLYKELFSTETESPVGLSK
Experiment: ROR gamma coactivator peptide recruitment Alphascreen assay (RORγ-LBD binding to GRIP1 coactivator peptide)
Format: biochemical
Conditions: 5 nM human RORγ-LBD, 30 nM 7-β-hydroxycholesterol, 50 nM biotinylated GRIP1 coactivator peptide, overnight incubation at room temperature; read-out: result (pIC50, RORγ coactivator peptide recruitment Alphascreen assay) (converted)
Method in brief: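 His/Flag-tagged human RORγ-LBD (aa 262-518, E. coli-expressed, 5 nM) with agonist 7-β-hydroxycholesterol (30 nM) and biotinylated GRIP1 LXXLL peptide (50 nM) in HEPES pH 7.4 buffer, 2.5% DMSO. Compound 1-in-2 dilutions; Alphascreen bead signal read after overnight incubation at room temperature; pIC50 calculated.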

| SMILES | IC50 |
| --- | --- |
| C[C@]1(C(=O)O)CC[C@H](n2ncc(C(=O)N(C[C@H](O)c3c(Cl)cncc3Cl)CC3(F)CC3)c2C(F)(F)F)CC1 [Example 840, trans-4-(4-(((2R)-2-(3,5-dichloro-4-pyridinyl)-2-hydroxyethyl)((1-fluorocyclopropyl)methyl)carbamoyl)-5-(trifluoromethyl)-1H-pyrazol-1-yl)-1-methylcyclohexanecarboxylic acid] | 240 nM |
| CC(C)(C)CN(CC(=O)c1c(Cl)cncc1Cl)C(=O)c1cnn([C@H]2CC[C@@H](CS(C)(=O)=O)CC2)c1C(F)(F)F [Example 841, N-(2-(3,5-dichloro-4-pyridinyl)-2-oxoethyl)-N-(2,2-dimethylpropyl)-1-(cis-4-((methylsulfonyl)methyl)cyclohexyl)-5-(trifluoromethyl)-1H-pyrazole-4-carboxamide] | 195 nM |
| COC1(CN(CC(=O)c2c(Cl)cncc2Cl)C(=O)c2cnn([C@H]3CC[C@](C)(C(=O)O)CC3)c2C(F)(F)F)CC1 [Example 844, trans-4-(4-((2-(3,5-dichloro-4-pyridinyl)-2-oxoethyl)((1-methoxycyclopropyl)methyl)carbamoyl)-5-(trifluoromethyl)-1H-pyrazol-1-yl)-1-methylcyclohexanecarboxylic acid] | 30.2 nM |
| C[C@@H]1C[C@@H](n2ncc(C(=O)N(CC(=O)c3c(Cl)ccc(F)c3Cl)[C@H]3C[C@@H]4[C@H](C3)C4(C)C)c2C(F)(F)F)CC[C@@H]1C(=O)O [Example 845, (1S,2R,4S)-4-(4-((2-(2,6-dichloro-3-fluorophenyl)-2-oxoethyl)((1R,3r,5S)-6,6-dimethylbicyclo[3.1.0]hexan-3-yl)carbamoyl)-5-(trifluoromethyl)-1H-pyrazol-1-yl)-2-methylcyclohexanecarboxylic acid] | 1.45 nM |
| CC1(C)[C@@H]2C[C@H](N(CC(=O)c3c(Cl)cccc3Cl)C(=O)c3cnn([C@H]4C[C@@H](CC(=O)O)C4)c3C(F)(F)F)C[C@@H]21 [Example 846, (cis-3-(4-((2-(2,6-dichlorophenyl)-2-oxoethyl)((1R,3r,5S)-6,6-dimethylbicyclo[3.1.0]hex-3-yl)carbamoyl)-5-(trifluoromethyl)-1H-pyrazol-1-yl)cyclobutyl)acetic acid] | 2.4 nM |
| CC(C)(F)CN(CC(=O)c1c(Cl)cncc1Cl)C(=O)c1cnn([C@H]2C[C@@]3(C[C@H](C(=O)O)C3)C2)c1C(F)(F)F (stereo partly drawn) [Example 847, (4s)-6-(4-((2-(3,5-dichloro-4-pyridinyl)-2-oxoethyl)(2-fluoro-2-methylpropyl)carbamoyl)-5-(trifluoromethyl)-1H-pyrazol-1-yl)spiro[3.3]heptane-2-carboxylic acid] | 21.9 nM |
| C[C@@H]1C[C@@H](n2ncc(C(=O)N(CC(=O)c3c(Cl)cccc3Cl)[C@H]3CCC34CCC4)c2C(F)(F)F)CC[C@@H]1C(=O)O [Example 848, (1S,2R,4S)-4-(4-((2-(2,6-dichlorophenyl)-2-oxoethyl)((1S)-spiro[3.3]hept-1-yl)carbamoyl)-5-(trifluoromethyl)-1H-pyrazol-1-yl)-2-methylcyclohexanecarboxylic acid] | 1.32 nM |
| C[C@@H]1C[C@@H](n2ncc(C(=O)N(CC(=O)c3c(Cl)cccc3Cl)[C@@H]3CCC34CCC4)c2C(F)(F)F)CC[C@@H]1C(=O)O [Example 849, (1S,2R,4S)-4-(4-((2-(2,6-dichlorophenyl)-2-oxoethyl)((1R)-spiro[3.3]hept-1-yl)carbamoyl)-5-(trifluoromethyl)-1H-pyrazol-1-yl)-2-methylcyclohexanecarboxylic acid] | 8.71 nM |
| CCOC(C)(C)CN(CC(=O)c1c(Cl)cncc1Cl)C(=O)c1cnn([C@H]2CC[C@](C)(C(=O)O)CC2)c1C(F)(F)F [Example 850, trans-4-(4-((2-(3,5-dichloro-4-pyridinyl)-2-oxoethyl)(2-ethoxy-2-methylpropyl)carbamoyl)-5-(trifluoromethyl)-1H-pyrazol-1-yl)-1-methylcyclohexanecarboxylic acid] | 12.9 nM |
| C[C@@H]1C[C@@H](n2ncc(C(=O)N(CC(=O)c3c(Cl)cncc3Cl)CC3CCC4(CC3)CC4)c2C(F)(F)F)CC[C@@H]1C(=O)O [Example 852, (1S,2R,4S)-4-(4-((2-(3,5-dichloro-4-pyridinyl)-2-oxoethyl)(spiro[2.5]oct-6-ylmethyl)carbamoyl)-5-(trifluoromethyl)-1H-pyrazol-1-yl)-2-methylcyclohexanecarboxylic acid] | 891 nM |
| C[C@]1(C(=O)O)CC[C@H](n2ncc(C(=O)N(CC(=O)c3c(Cl)cncc3Cl)C[C@]34CC[C@H](CC3)O4)c2C(F)(F)F)CC1 [Example 853, trans-4-(4-((2-(3,5-dichloro-4-pyridinyl)-2-oxoethyl)((1s,4s)-7-oxabicyclo[221]hept-1-ylmethyl)carbamoyl)-5-(trifluoromethyl)-1H-pyrazol-1-yl)-1-methylcyclohex anecarboxylic acid] | 17 nM |
| C[C@]1(C(=O)O)CC[C@H](n2ncc(C(=O)N(CC(=O)c3c(Cl)cncc3Cl)CC34CC(C3)C4)c2C(F)(F)F)CC1 [Example 854, trans-4-(4-((bicyclo[1.1.1]pent-1-ylmethyl)(2-(3,5-dichloro-4-pyridinyl)-2-oxoethyl)carbamoyl)-5-(trifluoromethyl)-1H-pyrazol-1-yl)-1-methylcyclohexanecarboxylic acid] | 4.68 nM |
| C[C@H]1C[C@@](C)(C(=O)O)CC[C@H]1n1ncc(C(=O)N(CC(=O)c2c(Cl)cncc2Cl)CC(C)(C)C)c1C(F)(F)F [Example 856, (1S,3S,4R)-4-(4-((2-(3,5-dichloro-4-pyridinyl)-2-oxoethyl)(2,2-dimethylpropyl)carbamoyl)-5-(trifluoromethyl)-1H-pyrazol-1-yl)-1,3-dimethylcyclohexanecarboxylic acid] | 67.6 nM |
| C[C@@H]1C[C@](C)(C(=O)O)CC[C@@H]1n1ncc(C(=O)N(CC(=O)c2c(Cl)cncc2Cl)CC(C)(C)C)c1C(F)(F)F [Example 857, (1R,3R,4S)-4-(4-((2-(3,5-dichloro-4-pyridinyl)-2-oxoethyl)(2,2-dimethylpropyl)carbamoyl)-5-(trifluoromethyl)-1H-pyrazol-1-yl)-1,3-dimethylcyclohexanecarboxylic acid] | 33.9 nM |
| CC1(C)[C@@H]2C[C@H](N(CC(=O)c3c(Cl)cccc3Cl)C(=O)c3cnn([C@H]4C[C@@H](CC(=O)O)C4)c3C(F)(F)F)C[C@@H]21 [Example 859, (cis-3-(4-((2-(2,6-dichlorophenyl)-2-oxoethyl)((1R,3r,5S)-6,6-dimethylbicyclo[3.1.0]hex-3-yl)carbamoyl)-5-(trifluoromethyl)-1H-pyrazol-1-yl)cyclobutyl)acetic acid] | 6.03 nM |
| CC(C)(C)CN(CC(=O)c1c(Cl)cncc1Cl)C(=O)c1cnn([C@H]2CC[C@]3(CC2)C[C@@H]3C(=O)O)c1C(F)(F)F [Example 860, (1R,3r,6R)-6-(4-((2-(3,5-dichloro-4-pyridinyl)-2-oxoethyl)(2,2-dimethylpropyl)carbamoyl)-5-(trifluoromethyl)-1H-pyrazol-1-yl)spiro[2.5]octane-1-carboxylic acid] | 11.5 nM |
| C[C@@H]1C[C@H](n2ncc(C(=O)N(CC(=O)c3c(Cl)cncc3Cl)CC(C)(C)C)c2C(F)(F)F)CC[C@]1(C)C(=O)O [Example 862, (1S,3S,4R)-4-(4-((2-(3,5-dichloro-4-pyridinyl)-2-oxoethyl)(2,2-dimethylpropyl)carbamoyl)-5-(trifluoromethyl)-1H-pyrazol-1-yl)-1,2-dimethylcyclohexanecarboxylic acid] | 38 nM |
| CC1(CN(CC(=O)c2c(Cl)cncc2Cl)C(=O)c2cnn([C@H]3CC[C@](C)(C(=O)O)CC3)c2C(F)(F)F)CC(F)(F)C1 [Example 863, trans-4-(4-((2-(3,5-dichloro-4-pyridinyl)-2-oxoethyl)((3,3-difluoro-1-methylcyclobutyl)methyl)carbamoyl)-5-(trifluoromethyl)-1H-pyrazol-1-yl)-1-methylcyclohexanecarboxylic acid] | 6.46 nM |
| C[C@@H]1C[C@H](n2ncc(C(=O)N(CC(=O)c3c(Cl)cncc3Cl)C[C@]34CC[C@H](CC3)O4)c2C(F)(F)F)CC[C@H]1C(=O)O [Example 867, (1S,2S,4S)-4-(4-((2-(3,5-dichloro-4-pyridinyl)-2-oxoethyl)((1s,4s)-7-oxabicyclo[2.2.1]hept-1-ylmethyl)carbamoyl)-5-(trifluoromethyl)-1H-pyrazol-1-yl)-2-methylcyclohexanecarboxylic acid] | 24.5 nM |
| CC(C)(C)CN(CC(=O)c1c(Cl)cncc1Cl)C(=O)c1cnn([C@H]2CC[C@](C)(C(=O)O)C[C@H]2F)c1C(F)(F)F [Example 868, (1S,3R,4S)-4-(4-((2-(3,5-dichloro-4-pyridinyl)-2-oxoethyl)(2,2-dimethylpropyl)carbamoyl)-5-(trifluoromethyl)-1H-pyrazol-1-yl)-3-fluoro-1-methylcyclohexanecarboxylic acid] | 4.57 nM |
| CC(C)(C)CN(CC(=O)c1c(Cl)cncc1Cl)C(=O)c1cnn([C@@H]2CC[C@@](C)(C(=O)O)C[C@@H]2F)c1C(F)(F)F [Example 869, (1R,3S,4R)-4-(4-((2-(3,5-dichloro-4-pyridinyl)-2-oxoethyl)(2,2-dimethylpropyl)carbamoyl)-5-(trifluoromethyl)-1H-pyrazol-1-yl)-3-fluoro-1-methylcyclohexanecarboxylic acid] | 13.8 nM |
